From patent US10597388B2, “Pyridazinone herbicides” (FMC CORPORATION, priority 2014, dated 2020)

Experiments:
Assay type in all cases: in vivo
kochia (Kochia scoparia) = experiment: Test C greenhouse herbicide test, postemergence
How it was run: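 Visual injury scores (0–100, where 100 means complete control) were assigned 13 to 15 d after postemergence application, by comparison with untreated plants. Treated seedlings stood 2 to 18 cm tall, at the 1- to 4-leaf stage.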

corn (Zea mays) = experiment: Test C greenhouse herbicide test, pre- and postemergence
How it was run: (§1)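 Preemergence: seeds sown in a loam soil–sand blend and sprayed with test chemicals in a non-phytotoxic solvent mixture containing surfactant. Postemergence: plants grown in peat-based medium and treated at 2 to 18 cm (1- to 4-leaf stage). After 13 to 15 d in a greenhouse, injury was visually rated 0–100 against controls.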

[1] = test system: nutsedge, yellow (yellow nutsedge, Cyperus esculentus); experiment: as above
How it was run: as §1

[2] = test system: ragweed (common ragweed, Ambrosia elatior); experiment: as above
How it was run: as §1

[3] = test system: waterhemp (common waterhemp, Amaranthus rudis); experiment: as above
How it was run: as §1

soybean (Glycine max) = experiment: as above
How it was run: as §1

[4] = test system: foxtail, giant (giant foxtail, Setaria faberii); experiment: as above
How it was run: as §1

[5] = test system: wheat (winter wheat, Triticum aestivum); experiment: as above
How it was run: as §1

[6] = test system: morningglory (Ipomoea coccinea); experiment: as above
How it was run: as §1

[7] = test system: lambsquarters (Chenopodium album); experiment: as above
How it was run: as §1

[8] = test system: ryegrass, Italian (Italian ryegrass, Lolium multiflorum); experiment: as above
How it was run: as §1

[9] = test system: johnsongrass (Sorghum halepense); experiment: as above
How it was run: as §1

[10] = test system: blackgrass (Alopecurus myosuroides); experiment: as above
How it was run: as §1

[11] = test system: pigweed (Amaranthus retroflexus); experiment: as above
How it was run: as §1

[12] = test system: crabgrass, large (large crabgrass, Digitaria sanguinalis); experiment: as above
How it was run: as §1

[13] = test system: oilseed rape (Brassica napus); experiment: as above
How it was run: as §1

[14] = Postemergence, 31 g ai/ha, 0 to 100 scale (0 no effect, 100 complete control)
[15] = Postemergence, 125 g ai/ha, scale 0 to 100, 0 is no effect, 100 is complete control
[16] = Postemergence, 250 g ai/ha, scale 0 to 100, 0 no effect, 100 complete control, 13 to 15 d
[17] = postemergence, 62 g ai/ha, scale 0 to 100, 0 no effect, 100 complete control
[18] = Preemergence, 31 g ai/ha, scale 0 to 100, 0 is no effect, 100 is complete control
[19] = Preemergence, 62 g ai/ha, scale 0 to 100, 0 is no effect, 100 is complete control
[20] = Preemergence, 125 g ai/ha, scale 0 to 100, 0 is no effect, 100 is complete control
[21] = Preemergence, 250 g ai/ha, scale 0 to 100 (0 no effect, 100 complete control)

CC(=O)Oc1c(C)nn(C)c(=O)c1-c1c(C)sc2c(C)cc(C)cc12 [Compound 27]
Kochia plant response rating (kochia (Kochia scoparia); [14]): 75 | Plant response rating, Kochia (kochia (Kochia scoparia); [15]): 90 | Plant response rating, Kochia (kochia (Kochia scoparia); [16]): 90 | Kochia plant response rating (kochia (Kochia scoparia); [17]): 80 | Corn plant response rating (corn (Zea mays); [14]): 0 | Plant response rating, Corn (corn (Zea mays); [15]): 0 | Plant response rating, Corn (corn (Zea mays); [16]): 15 | Plant response rating, Corn (corn (Zea mays); [18]): 0 | Plant response rating, Corn (corn (Zea mays); [19]): 0 | Plant response rating, Corn (corn (Zea mays); [20]): 5 | Corn plant response rating (corn (Zea mays); [21]): 0 | Corn plant response rating (corn (Zea mays); [17]): 5 | Nutsedge, Yellow plant response rating [1, 14]: 85 | Plant response rating, Nutsedge, Yellow [1, 16]: 95 | Plant response rating, Nutsedge, Yellow [1, 18]: 70 | Plant response rating, Nutsedge, Yellow [1, 19]: 90 | Plant response rating, Nutsedge, Yellow [1, 20]: 90 | Nutsedge, Yellow plant response rating [1, 21]: 95 | Nutsedge, Yellow plant response rating [1, 17]: 80 | Ragweed plant response rating [2, 14]: 70 | Plant response rating, Ragweed [2, 15]: 85 | Plant response rating, Ragweed [2, 16]: 90 | Plant response rating, Ragweed [2, 18]: 80 | Plant response rating, Ragweed [2, 19]: 100 | Plant response rating, Ragweed [2, 20]: 100 | Ragweed plant response rating [2, 21]: 95 | Ragweed plant response rating [2, 17]: 75 | Waterhemp plant response rating [3, 14]: 65 | Plant response rating, Waterhemp [3, 15]: 10 | Plant response rating, Waterhemp [3, 16]: 90 | Plant response rating, Waterhemp [3, 19]: 85 | Plant response rating, Waterhemp [3, 20]: 100 | Waterhemp plant response rating [3, 21]: 100 | Waterhemp plant response rating [3, 17]: 60 | Soybean plant response rating (soybean (Glycine max); [14]): 0 | Plant response rating, Soybean (soybean (Glycine max); [15]): 0 | Plant response rating, Soybean (soybean (Glycine max); [16]): 0 | Plant response rating, Soybean (soybean (Glycine max); [19]): 0 | Plant response rating, Soybean (soybean (Glycine max); [20]): 10 | Soybean plant response rating (soybean (Glycine max); [21]): 0 | Soybean plant response rating (soybean (Glycine max); [17]): 0 | Foxtail, Giant plant response rating [4, 14]: 60 | Plant response rating, Foxtail, Giant [4, 15]: 90 | Plant response rating, Foxtail, Giant [4, 16]: 95 | Plant response rating, Foxtail, Giant [4, 18]: 100 | Plant response rating, Foxtail, Giant [4, 19]: 100 | Plant response rating, Foxtail, Giant [4, 20]: 100 | Foxtail, Giant plant response rating [4, 21]: 100 | Foxtail, Giant plant response rating [4, 17]: 75 | Wheat plant response rating [5, 14]: 0 | Plant response rating, Wheat [5, 15]: 5 | Plant response rating, Wheat [5, 16]: 5 | Plant response rating, Wheat [5, 19]: 0 | Plant response rating, Wheat [5, 20]: 0 | Wheat plant response rating [5, 21]: 10 | Wheat plant response rating [5, 17]: 0 | Morningglory plant response rating [6, 14]: 100 | Plant response rating, Morningglory [6, 15]: 100 | Plant response rating, Morningglory [6, 16]: 100 | Plant response rating, Morningglory [6, 18]: 85 | Plant response rating, Morningglory [6, 19]: 98 | Plant response rating, Morningglory [6, 20]: 100 | Morningglory plant response rating [6, 21]: 100 | Morningglory plant response rating [6, 17]: 100 | Lambsquarters plant response rating [7, 14]: 85 | Plant response rating, Lambsquarters [7, 15]: 90 | Plant response rating, Lambsquarters [7, 16]: 98 | Plant response rating, Lambsquarters [7, 18]: 70 | Plant response rating, Lambsquarters [7, 19]: 95 | Plant response rating, Lambsquarters [7, 20]: 95 | Lambsquarters plant response rating [7, 21]: 98 | Lambsquarters plant response rating [7, 17]: 85 | Ryegrass, Italian plant response rating [8, 14]: 80 | Plant response rating, Ryegrass, Italian [8, 15]: 90 | Plant response rating, Ryegrass, Italian [8, 16]: 90 | Plant response rating, Ryegrass, Italian [8, 18]: 85 | Plant response rating, Ryegrass, Italian [8, 19]: 90 | Plant response rating, Ryegrass, Italian [8, 20]: 90 | Ryegrass, Italian plant response rating [8, 21]: 95 | Ryegrass, Italian plant response rating [8, 17]: 85 | Johnsongrass plant response rating [9, 14]: 10 | Plant response rating, Johnsongrass [9, 16]: 10 | Plant response rating, Johnsongrass [9, 18]: 0 | Plant response rating, Johnsongrass [9, 19]: 5 | Plant response rating, Johnsongrass [9, 20]: 5 | Johnsongrass plant response rating [9, 21]: 25 | Johnsongrass plant response rating [9, 17]: 0 | Blackgrass plant response rating [10, 14]: 50 | Plant response rating, Blackgrass [10, 15]: 85 | Plant response rating, Blackgrass [10, 16]: 90 | Plant response rating, Blackgrass [10, 18]: 85 | Plant response rating, Blackgrass [10, 19]: 90 | Plant response rating, Blackgrass [10, 20]: 90 | Blackgrass plant response rating [10, 21]: 90 | Blackgrass plant response rating [10, 17]: 70 | Pigweed plant response rating [11, 14]: 55 | Plant response rating, Pigweed [11, 15]: 85 | Plant response rating, Pigweed [11, 16]: 90 | Plant response rating, Pigweed [11, 18]: 98 | Plant response rating, Pigweed [11, 19]: 100 | Plant response rating, Pigweed [11, 20]: 98 | Pigweed plant response rating [11, 21]: 100 | Pigweed plant response rating [11, 17]: 80 | Crabgrass, Large plant response rating [12, 14]: 5 | Plant response rating, Crabgrass, Large [12, 15]: 30 | Plant response rating, Crabgrass, Large [12, 16]: 45 | Plant response rating, Crabgrass, Large [12, 18]: 55 | Plant response rating, Crabgrass, Large [12, 19]: 80 | Plant response rating, Crabgrass, Large [12, 20]: 95 | Crabgrass, Large plant response rating [12, 21]: 98 | Crabgrass, Large plant response rating [12, 17]: 25 | Oilseed Rape plant response rating [13, 14]: 5 | Plant response rating, Oilseed Rape [13, 15]: 80 | Plant response rating, Oilseed Rape [13, 16]: 70 | Plant response rating, Oilseed Rape [13, 18]: 5 | Plant response rating, Oilseed Rape [13, 19]: 95 | Plant response rating, Oilseed Rape [13, 20]: 98 | Oilseed Rape plant response rating [13, 21]: 98 | Oilseed Rape plant response rating [13, 17]: 70
